According to PubChem BioAssay AID248 (DTP/NCI, 2004):
Where “and” joins values, the source holds several entries; their conditions need not be identical. Identical values can stand only once. Toxic doses and inconclusive results are not listed. No stated cut-off is given here; in the data, active means T/C of 150% or more; inactive means T/C below 125%.

Test system: L1210 leukemia ip in BDF1 mice, survival T/C
Experiment: NCI In Vivo Anticancer Drug Screen. Data for tumor model L1210 Leukemia (intraperitoneal) in B6D2F1 (BDF1) mice
Settings: endpoint: mean survival time, higher = longer survival
Summary of the method: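 Ratio derived from survival: compound-dosed mice over vehicle-dosed mice, all bearing a transplantable tumor.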

[1] = dose: 75.0 mg/kg/injection, schedule: Q01DX001 (ip), vehicle: saline
[2] = dose: 150.0 mg/kg/injection, schedule: Q01DX001 (ip), vehicle: saline
[3] = dose: 100.0 mg/kg/injection, schedule: Q01DX009 (ip), vehicle: Klucel (hydroxypropylcellulose) (HPC)
[4] = dose: 100.0 mg/kg/injection, schedule: Q04DX003 (ip), vehicle: Klucel (hydroxypropylcellulose) (HPC)
[5] = dose: 200.0 mg/kg/injection, schedule: Q01DX009 (ip), vehicle: Klucel (hydroxypropylcellulose) (HPC)
[6] = dose: 200.0 mg/kg/injection, schedule: Q04DX003 (ip), vehicle: Klucel (hydroxypropylcellulose) (HPC)
[7] = dose: 400.0 mg/kg/injection, schedule: Q01DX009 (ip), vehicle: Klucel (hydroxypropylcellulose) (HPC)
[8] = dose: 400.0 mg/kg/injection, schedule: Q04DX003 (ip), vehicle: Klucel (hydroxypropylcellulose) (HPC)
[9] = dose: 100.0 mg/kg/injection, schedule: Q01DX009 (ip), vehicle: saline with Tween-80
[10] = dose: 200.0 mg/kg/injection, schedule: Q01DX009 (ip), vehicle: saline with Tween-80
[11] = dose: 100.0 mg/kg/injection, schedule: Q04DX003 (ip), vehicle: other
[12] = dose: 50.0 mg/kg/injection, schedule: Q01DX009 (ip), vehicle: saline with Tween-80
[13] = dose: 100.0 mg/kg/injection, schedule: Q04DX003 (ip), vehicle: saline with Tween-80
[14] = dose: 200.0 mg/kg/injection, schedule: Q04DX003 (ip), vehicle: saline with Tween-80
[15] = dose: 100.0 mg/kg/injection, schedule: Q01DX001 (ip), vehicle: carboxymethylcellulose (CMC)
[16] = dose: 200.0 mg/kg/injection, schedule: Q01DX001 (ip), vehicle: carboxymethylcellulose (CMC)
[17] = dose: 400.0 mg/kg/injection, schedule: Q01DX001 (ip), vehicle: carboxymethylcellulose (CMC)
[18] = dose: 100.0 mg/kg/injection, schedule: Q01DX009 (ip), vehicle: saline
[19] = dose: 100.0 mg/kg/injection, schedule: Q04DX003 (ip), vehicle: saline
[20] = dose: 200.0 mg/kg/injection, schedule: Q01DX009 (ip), vehicle: saline
[21] = dose: 200.0 mg/kg/injection, schedule: Q04DX003 (ip), vehicle: saline
[22] = dose: 400.0 mg/kg/injection, schedule: Q04DX003 (ip), vehicle: saline
[23] = dose: 100.0 mg/kg/injection, schedule: Q01DX001 (ip), vehicle: saline with Tween-80
[24] = dose: 200.0 mg/kg/injection, schedule: Q01DX001 (ip), vehicle: saline with Tween-80
[25] = dose: 400.0 mg/kg/injection, schedule: Q01DX001 (ip), vehicle: saline with Tween-80
[26] = dose: 400.0 mg/kg/injection, schedule: Q04DX003 (ip), vehicle: saline with Tween-80
[27] = dose: 25.0 mg/kg/injection, schedule: Q04DX003 (ip), vehicle: saline
[28] = dose: 50.0 mg/kg/injection, schedule: Q04DX003 (ip), vehicle: saline

Measured: T/C

CN(C)CCCNCC(=O)Nc1ccc(S(=O)(=O)c2ccc([N+](=O)[O-])cc2)cc1
inactive: [1] 104 % of control | [2] 104 % of control

O=C(NN(c1ccccc1)c1cccc2ccccc12)c1ccccc1
inactive: dose: 50.0 mg/kg/injection, schedule: Q01DX009 (ip), vehicle: Klucel (hydroxypropylcellulose) (HPC) 103 % of control | [3] 103 % of control | [4] 89 % of control | [5] 97 % of control | [6] 93 % of control | [7] 100 % of control | [8] 94 % of control

Cc1ccc([N+](=O)[O-])cc1NC(=O)SCCSC(=O)Nc1cc([N+](=O)[O-])ccc1C
inactive: [4] 90 % of control | [6] 92 % of control | [8] 92 % of control

CCCCOP(=O)(OCCCC)c1ccccc1OC
inactive: dose: 25.0 mg/kg/injection, schedule: Q04DX002 (ip), vehicle: saline with Tween-80 99 % of control | dose: 50.0 mg/kg/injection, schedule: Q04DX002 (ip), vehicle: saline with Tween-80 99 % of control | dose: 100.0 mg/kg/injection, schedule: Q04DX002 (ip), vehicle: saline with Tween-80 96 % of control and 89 % of control

Cc1ccc(N=Nc2ccc(C)cc2NC(=O)c2c(Br)c(Br)c(Br)c(Br)c2C(=O)O)cc1
inactive: [9] 93 % of control | [10] 93 % of control

Cc1cc(C(=O)C[n+]2ccccc2)c(CN2C(=O)c3ccccc3C2=O)c(=O)n1C
inactive: dose: 100.0 mg/kg/injection, schedule: Q01DX001 (ip), vehicle: water 102 % of control

CCC1=CC(=O)C(C)=C(C)C1=O
inactive: dose: 25.0 mg/kg/injection, schedule: Q04DX003 (ip), vehicle: other 100 % of control | dose: 50.0 mg/kg/injection, schedule: Q04DX003 (ip), vehicle: other 102 % of control | [11] 97 % of control and 102 % of control

C=Cc1ccc(N)cc1
inactive: [12] 90 % of control | [13] 87 % of control | [10] 93 % of control | [14] 90 % of control

Clc1ccc2c(c1)Nc1ccccc1S2
inactive: [3] 88 % of control | [4] 94 % of control | [5] 95 % of control | [6] 98 % of control | [7] 96 % of control | [8] 100 % of control

CC1(Cl)C(=O)NN=C1c1ccc([N+](=O)[O-])cc1 (stereo unspecified)
inactive: [15] 102 % of control | [16] 102 % of control | [17] 105 % of control

COC(=O)/C=C(/CC(=O)OC)Nc1ccc(OC)cc1
inactive: dose: 100.0 mg/kg/injection, schedule: Q01DX001 (ip), vehicle: other 101 % of control | dose: 200.0 mg/kg/injection, schedule: Q01DX001 (ip), vehicle: other 101 % of control | dose: 400.0 mg/kg/injection, schedule: Q01DX001 (ip), vehicle: other 108 % of control

N#CCCN1CCOCC1
inactive: [18] 93 % of control | [19] 97 % of control | [20] 97 % of control | [21] 95 % of control | dose: 400.0 mg/kg/injection, schedule: Q01DX009 (ip), vehicle: saline 95 % of control | [22] 105 % of control

Cc1ccc(S(=O)(=O)NC(CSCc2ccccc2)C(=O)O)cc1 (stereo unspecified)
inactive: [9] 92 % of control | [10] 101 % of control

CCOC(=O)c1ccc(NCC#N)cc1
inactive: dose: 25.0 mg/kg/injection, schedule: Q01DX009 (ip), vehicle: saline with Tween-80 92 % of control | [12] 95 % of control | [23] 97 % of control | [9] 94 % of control | [24] 92 % of control | [10] 91 % of control | [25] 98 % of control | dose: 400.0 mg/kg/injection, schedule: Q01DX009 (ip), vehicle: saline with Tween-80 102 % of control

O=C1c2ccccc2C(=O)c2cc(S(=O)(=O)O)ccc21
inactive: [13] 95 % of control | [14] 95 % of control | [26] 95 % of control

COC(=O)CNc1ccc(O)cc1
inactive: [11] 102 % of control | dose: 200.0 mg/kg/injection, schedule: Q04DX003 (ip), vehicle: other 94 % of control | dose: 400.0 mg/kg/injection, schedule: Q04DX003 (ip), vehicle: other 88 % of control

C1COC(CNCC2CCCO2)C1 (stereo unspecified)
inactive: dose: 50.0 mg/kg/injection, schedule: Q01DX001 (ip), vehicle: saline 109 % of control | dose: 100.0 mg/kg/injection, schedule: Q01DX001 (ip), vehicle: saline 101 % of control | dose: 200.0 mg/kg/injection, schedule: Q01DX001 (ip), vehicle: saline 103 % of control

CC(=O)Nc1ccc(S(N)(=O)=O)cn1
inactive: [19] 102 % of control | [21] 89 % of control | [22] 86 % of control

NS(=O)(=O)c1cc2c(cc1Cl)NC(CSCC(F)(F)F)NS2(=O)=O (stereo unspecified)
inactive: [15] 113 % of control | [16] 108 % of control | [17] 97 % of control

c1ccc(-c2ncc3cnccn23)cc1
inactive: [27] 100 % of control | [28] 102 % of control | [19] 98 % of control and 102 % of control

CCc1c(O)c2c(c(O)c1C(C)=O)C(=O)c1c(cc(O)c(C(=O)O)c1C(=O)O)C2=O
inactive: [13] 100 % of control | [14] 100 % of control

C=CCCC1(CC=C)C(=O)NC(=O)NC1=O
inactive: [1] 100 % of control | [2] 104 % of control

O=CNNC(=O)c1cnccn1
inactive: [18] 104 % of control | [19] 103 % of control | dose: 177.0 mg/kg/injection, schedule: Q01DX009 (ip), vehicle: saline 117 % of control | [20] 115 % of control | [21] 97 % of control | dose: 266.0 mg/kg/injection, schedule: Q01DX009 (ip), vehicle: saline 114 % of control | [22] 120 % of control

CCCCSc1nc2ccccc2[nH]1
inactive: [23] 93 % of control | [13] 93 % of control | [24] 104 % of control | [14] 97 % of control | [25] 104 % of control | [26] 100 % of control

ClC(c1ccccc1)C1(Br)C=c2ccccc2=C1 (stereo unspecified)
inactive: [3] 97 % of control | [5] 97 % of control | [6] 105 % of control and 91 % of control | [8] 94 % of control and 103 % of control

O=C(Cc1ccccc1)NC1=C(NCc2ccccc2)C(=O)c2ccccc2C1=O
inactive: [13] 105 % of control | [14] 98 % of control | [26] 96 % of control

CCOC(=O)C(CO)NS(=O)(=O)c1ccc(C)cc1 (stereo unspecified)
inactive: [1] 103 % of control | dose: 75.0 mg/kg/injection, schedule: Q04DX003 (ip), vehicle: saline 102 % of control | [2] 106 % of control | dose: 150.0 mg/kg/injection, schedule: Q04DX003 (ip), vehicle: saline 103 % of control | dose: 300.0 mg/kg/injection, schedule: Q01DX001 (ip), vehicle: saline 103 % of control | dose: 300.0 mg/kg/injection, schedule: Q04DX003 (ip), vehicle: saline 97 % of control

O=C(Cn1ccc(=O)[nH]c1=O)Nc1nccs1
inactive: dose: 6.25 mg/kg/injection, schedule: Q01DX009 (ip), vehicle: saline 102 % of control | dose: 12.5 mg/kg/injection, schedule: Q01DX009 (ip), vehicle: saline 104 % of control | dose: 12.5 mg/kg/injection, schedule: Q04DX003 (ip), vehicle: saline 122 % of control | dose: 25.0 mg/kg/injection, schedule: Q01DX009 (ip), vehicle: saline 103 % of control | [27] 95 % of control

CC1(C)OCC(C2OC3OC(c4ccccc4)=NC3C2O)O1 (stereo unspecified)
inactive: dose: 100.0 mg/kg/injection, schedule: Q01DX001 (ip), vehicle: Klucel (hydroxypropylcellulose) (HPC) 96 % of control | dose: 200.0 mg/kg/injection, schedule: Q01DX001 (ip), vehicle: Klucel (hydroxypropylcellulose) (HPC) 104 % of control | dose: 400.0 mg/kg/injection, schedule: Q01DX001 (ip), vehicle: Klucel (hydroxypropylcellulose) (HPC) 101 % of control

C=C(Cl)CO
inactive: [27] 118 % of control | [28] 89 % of control
